Key:
[1] = tested on: tRNA^phe (yeast) (RNA, tRNA) GCGGAUUUAGCUCAGUUGGGAGAGCGCCAGACUGAAGAUCUGGAGGUCCUGUGUUCGAUCCACAGAAUUCGCACCA; experiment: ITC; details: 10 mM Na+; citrate-phosphate, pH 7.0, 20 °C; only background heats, binding negligible
[2] = tested on: tRNA^phe (yeast) (RNA, tRNA) GCGGAUUUAGCUCAGUUGGGAGAGCGCCAGACUGAAGAUCUGGAGGUCCUGUGUUCGAUCCACAGAAUUCGCACCA; experiment: UV melting, 260 nm; details: 10 mM Na+; citrate-phosphate, pH 7.0; 50 µM tRNA nucleotides; saturating alkaloid; average Tm 50 °C alone; per base
[3] = tested on: tRNA^phe (yeast) (RNA, tRNA) GCGGAUUUAGCUCAGUUGGGAGAGCGCCAGACUGAAGAUCUGGAGGUCCUGUGUUCGAUCCACAGAAUUCGCACCA; experiment: absorbance titration, Benesi-Hildebrand; details: 10 mM Na+; citrate-phosphate, pH 7.1, 20 °C; apparent; tRNA in nucleotide phosphates; per base
[4] = tested on: tRNA^phe (yeast) (RNA, tRNA) GCGGAUUUAGCUCAGUUGGGAGAGCGCCAGACUGAAGAUCUGGAGGUCCUGUGUUCGAUCCACAGAAUUCGCACCA; experiment: fluorescence titration, Benesi-Hildebrand; details: 10 mM Na+; citrate-phosphate, pH 7.1, 20 °C; apparent; tRNA in nucleotide phosphates; per base
[5] = tested on: tRNA^phe (yeast) (RNA, tRNA) GCGGAUUUAGCUCAGUUGGGAGAGCGCCAGACUGAAGAUCUGGAGGUCCUGUGUUCGAUCCACAGAAUUCGCACCA; experiment: ITC, single-site fit; details: 10 mM Na+; citrate-phosphate, pH 7.0, 20 °C; tRNA concentration in nucleotide phosphates; per base
[6] = tested on: tRNA^phe (yeast) (RNA, tRNA) GCGGAUUUAGCUCAGUUGGGAGAGCGCCAGACUGAAGAUCUGGAGGUCCUGUGUUCGAUCCACAGAAUUCGCACCA; experiment: absorbance titration, Scatchard, McGhee-von Hippel cooperative fit; details: 10 mM Na+; citrate-phosphate, pH 7.1, 20 °C; overall cooperative constant; tRNA in nucleotide phosphates; per base
[7] = tested on: tRNA^phe (yeast) (RNA, tRNA) GCGGAUUUAGCUCAGUUGGGAGAGCGCCAGACUGAAGAUCUGGAGGUCCUGUGUUCGAUCCACAGAAUUCGCACCA; experiment: fluorescence titration, Scatchard, McGhee-von Hippel cooperative fit; details: 10 mM Na+; citrate-phosphate, pH 7.1, 20 °C; overall cooperative constant; tRNA in nucleotide phosphates; per base

## COc1ccc2cc3[n+](cc2c1O)CCc1cc2c(cc1-3)OCO2
[1]
  binding: weak
[2]
  ΔTm: 2.0 °C
[3]
  KBH: 4300 M⁻¹
[4]
  KBH: 4200 M⁻¹

## COc1ccc2cc3[n+](cc2c1OC)CCc1cc2c(cc1-3)OCO2
[2]
  ΔTm: 4.5 °C
[5]
  Ka: 0.86 ± 0.01 × 10^5 M^-1
[3]
  KBH: 114000 M⁻¹
[4]
  KBH: 122000 M⁻¹
[6]
  Kiω: 169000 M⁻¹
[7]
  Kiω: 177000 M⁻¹

## COc1ccc2cc3[n+](cc2c1OCC(=O)NCCc1ccccc1)CCc1cc2c(cc1-3)OCO2
[2]
  ΔTm: 8.0 °C
[5]
  Ka: 8.20 ± 0.04 × 10^5 M^-1
[3]
  KBH: 874000 M⁻¹
[4]
  KBH: 889000 M⁻¹
[6]
  Kiω: 922000 M⁻¹
[7]
  Kiω: 941000 M⁻¹

## COc1ccc2cc3[n+](cc2c1OCC(=O)NCc1ccccc1)CCc1cc2c(cc1-3)OCO2
[2]
  ΔTm: 7.0 °C
[5]
  Ka: 7.17 ± 0.03 × 10^5 M^-1
[3]
  KBH: 613000 M⁻¹
[4]
  KBH: 644000 M⁻¹
[6]
  Kiω: 640000 M⁻¹
[7]
  Kiω: 658000 M⁻¹

## COc1ccc2cc3[n+](cc2c1OCC(=O)Nc1ccccc1)CCc1cc2c(cc1-3)OCO2
[2]
  ΔTm: 6.5 °C
[5]
  Ka: 4.67 ± 0.03 × 10^5 M^-1
[3]
  KBH: 425000 M⁻¹
[4]
  KBH: 404000 M⁻¹
[6]
  Kiω: 434000 M⁻¹
[7]
  Kiω: 427000 M⁻¹

Reference: article PMC3602459 (2013)
